Data from ChEMBL document CHEMBL1201862, “PubChem BioAssay data set” (2004).
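Where inhibition never reached the appropriate level, the endpoint shown equals the highest concentration tested. Otherwise, values were interpolated linearly from a five-concentration, 48-hour dose response in 96-well plates. Abbreviation: GI50, concentration required for 50% inhibition of growth.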 Activity calls are given as the source filed them. No stated cut-off is given here; in the data, active = GI50 up to about 1.1 µM and inactive = higher.

Columns and labels:
Assay in all cases: NCI tumour cell line growth inhibition, 48 h
[1] = test system: M14
[2] = test system: SNB-19
[3] = test system: HCT-116
[4] = test system: HCC 2998
[5] = test system: OVCAR-3
[6] = test system: UO-31
[7] = test system: SK-MEL-28
[8] = test system: NCI-H226
[9] = test system: SK-MEL-5
[10] = test system: UACC-257
[11] = test system: IGROV-1
[12] = test system: SNB-75
[13] = test system: SF-539
[14] = test system: BT-549
[15] = test system: MDA-MB-435
[16] = test system: NCI-H522
[17] = test system: OVCAR-5
[18] = test system: NCI-H460
[19] = test system: RPMI-8226
[20] = test system: HL-60

SMILES | GI50 [1] | GI50 [2] | GI50 [3] | GI50 [4] | GI50 [5] | GI50 [6] | GI50 [7] | GI50 [8] | GI50 [9] | GI50 [10] | GI50 [11] | GI50 [12] | GI50 [13] | GI50 [14] | GI50 [15] | GI50 [16] | GI50 [17] | GI50 [18] | GI50 [19] | GI50 [20]
CC(C)C(C/C=C1\CC(CO)(COC(=O)C2CCCCC2)OC1=O)C(C)C (stereo unspecified) | 21.8 µM (inactive) | 16.3 µM (inactive) | 19.2 µM (inactive) | 27.9 µM (inactive) | 20 µM (inactive) | 17.4 µM (inactive) | 16.6 µM (inactive) | 18.2 µM (inactive) | 31.6 µM (inactive) | 32.2 µM (inactive) | 22.9 µM (inactive) | 12.9 µM (inactive) | 20.3 µM (inactive) | 23.7 µM (inactive) | 44.8 µM (inactive) | 16.5 µM (inactive) | 20 µM (inactive) | 24.4 µM (inactive) |  | 
O=C1CSC(c2ccc(Cl)cc2)N1c1ccc(-n2c(-c3ccccc3)nc3ccccc3c2=O)cc1 (stereo unspecified) | > 100 µM (inactive) | > 100 µM (inactive) | 34.3 µM (inactive) | 34.5 µM (inactive) | > 100 µM (inactive) | 5.48 µM (inactive) | > 100 µM (inactive) | > 100 µM (inactive) | 54.7 µM (inactive) | > 100 µM (inactive) | 31.9 µM (inactive) | 7.64 µM (inactive) | > 100 µM (inactive) | > 100 µM (inactive) | 56 µM (inactive) | 25.9 µM (inactive) | > 100 µM (inactive) | 36.5 µM (inactive) | > 100 µM (inactive) | 
COc1ccc(/N=N/C(=N\c2ccc(Cl)cc2)c2ccc(N(CCC#N)CCC#N)cc2)cc1 | 57.5 µM (inactive) | > 100 µM (inactive) | 43.9 µM (inactive) | 4.91 µM (inactive) | 23.9 µM (inactive) | 5.06 µM (inactive) | > 100 µM (inactive) | > 100 µM (inactive) | 0.755 µM (active) | 11.4 µM (inactive) | 56.4 µM (inactive) | 39 µM (inactive) | > 100 µM (inactive) | 12.6 µM (inactive) | 7.23 µM (inactive) | 17.4 µM (inactive) | 47 µM (inactive) | 10.1 µM (inactive) | 34.5 µM (inactive) | 
O=c1cc(-c2ccccc2)[nH]c2ccc(S)cc12 | 25.9 µM (inactive) | 64.4 µM (inactive) | 24.4 µM (inactive) | 21 µM (inactive) | 28.6 µM (inactive) |  | 28.8 µM (inactive) | 16.1 µM (inactive) | 15.5 µM (inactive) | 42.5 µM (inactive) | 29.8 µM (inactive) | 24.6 µM (inactive) | 72.3 µM (inactive) | 23.5 µM (inactive) | 21.4 µM (inactive) | 21.7 µM (inactive) | 86.3 µM (inactive) | 31.8 µM (inactive) | 44.2 µM (inactive) | 35.7 µM (inactive)
O=C(Nc1ccc(Cl)cc1)[C-](C(=O)c1ccc(Br)cc1)[n+]1cccc(-c2ccc(Cl)cc2)n1 | 3.68 µM (inactive) | 8.41 µM (inactive) | 3.09 µM (inactive) | 6.78 µM (inactive) | 2.92 µM (inactive) | 5.87 µM (inactive) | 8.77 µM (inactive) |  | 3.18 µM (inactive) | 3.88 µM (inactive) | 2.77 µM (inactive) | 6.49 µM (inactive) |  | 2.54 µM (inactive) | 3.07 µM (inactive) | 2.26 µM (inactive) | 4.24 µM (inactive) | 3.44 µM (inactive) | 3.81 µM (inactive) | 
Cc1cc(S(=O)(=O)O)c(NC(=O)c2oc3cc(O)ccc3c(=O)c2C)cc1Cl | > 100 µM (inactive) | > 100 µM (inactive) | > 100 µM (inactive) | > 100 µM (inactive) | > 100 µM (inactive) | > 100 µM (inactive) | > 100 µM (inactive) | > 100 µM (inactive) | > 100 µM (inactive) | > 100 µM (inactive) | > 100 µM (inactive) | > 100 µM (inactive) | > 100 µM (inactive) | > 100 µM (inactive) | > 100 µM (inactive) | > 100 µM (inactive) | > 100 µM (inactive) | > 100 µM (inactive) | > 100 µM (inactive) | 
Cc1ccc(C)n2c1nc1ccccc12 | > 100 µM (inactive) | > 100 µM (inactive) | > 10 µM (inactive) | > 100 µM (inactive) | > 100 µM (inactive) | 91.4 µM (inactive) | > 100 µM (inactive) | > 100 µM (inactive) | 82.8 µM (inactive) | > 100 µM (inactive) | > 100 µM (inactive) | 24.9 µM (inactive) | > 100 µM (inactive) | > 100 µM (inactive) | > 100 µM (inactive) |  | > 100 µM (inactive) | 25.5 µM (inactive) | > 100 µM (inactive) | > 100 µM (inactive)
O=C1OC(c2ccccc2)=N/C1=C\c1ccc(Br)cc1 | > 100 µM (inactive) | > 100 µM (inactive) | > 100 µM (inactive) | > 100 µM (inactive) | > 100 µM (inactive) |  | > 100 µM (inactive) | > 100 µM (inactive) | > 100 µM (inactive) | > 100 µM (inactive) | > 100 µM (inactive) | > 100 µM (inactive) | > 100 µM (inactive) | > 100 µM (inactive) | > 100 µM (inactive) | > 100 µM (inactive) | > 100 µM (inactive) | > 100 µM (inactive) | 96.6 µM (inactive) | > 100 µM (inactive)
Cc1nn(-c2ccccn2)c2c1C(SC#N)=C(C=O)CC2 | 15.8 µM (inactive) | 19.6 µM (inactive) | 16 µM (inactive) | 11.9 µM (inactive) | 12.3 µM (inactive) | 14.6 µM (inactive) | 21.2 µM (inactive) |  | 15 µM (inactive) | 5.12 µM (inactive) | 11.5 µM (inactive) | 15.3 µM (inactive) | 19.1 µM (inactive) | 18.5 µM (inactive) | 18.1 µM (inactive) | 19.5 µM (inactive) | 4.85 µM (inactive) | 15.9 µM (inactive) | 13.3 µM (inactive) | 3.55 µM (inactive)
OCCCSc1ccccc1SCCCO | > 100 µM (inactive) | > 100 µM (inactive) | > 100 µM (inactive) | > 100 µM (inactive) | > 100 µM (inactive) | > 100 µM (inactive) | > 100 µM (inactive) |  | > 100 µM (inactive) | > 100 µM (inactive) | > 100 µM (inactive) | 17.2 µM (inactive) | > 100 µM (inactive) | > 100 µM (inactive) | > 100 µM (inactive) | > 100 µM (inactive) | > 100 µM (inactive) | > 100 µM (inactive) |  | > 100 µM (inactive)
CC(C)(C)/C(O)=C\c1nc2cc(F)c(F)cc2[nH]c1=O | > 100 µM (inactive) | > 100 µM (inactive) | > 100 µM (inactive) | > 100 µM (inactive) |  | > 100 µM (inactive) | > 100 µM (inactive) | > 100 µM (inactive) | > 100 µM (inactive) | > 100 µM (inactive) | > 100 µM (inactive) | > 100 µM (inactive) | > 100 µM (inactive) | > 100 µM (inactive) | > 100 µM (inactive) |  |  | > 100 µM (inactive) |  | > 100 µM (inactive)
Nc1ccc(C(=O)c2cn(CCN3CCOCC3)c3ccccc23)c2ccccc12 | 44.6 µM (inactive) | 75 µM (inactive) | 31.7 µM (inactive) | 47.2 µM (inactive) | 32.6 µM (inactive) | 44.4 µM (inactive) | 38.4 µM (inactive) |  | 20.7 µM (inactive) | 45.6 µM (inactive) | 16.1 µM (inactive) |  | 70.8 µM (inactive) | 19.1 µM (inactive) | 27.7 µM (inactive) | 21 µM (inactive) | 39.3 µM (inactive) | 34.3 µM (inactive) | 26.5 µM (inactive) | 15.4 µM (inactive)
CC1CC(N2CCOCC2)=Nc2ccccc2N1C (stereo unspecified) | > 100 µM (inactive) | > 100 µM (inactive) | > 100 µM (inactive) |  | > 100 µM (inactive) | > 100 µM (inactive) | > 100 µM (inactive) | > 100 µM (inactive) | > 100 µM (inactive) | > 100 µM (inactive) | > 100 µM (inactive) | 0.0392 µM (active) | > 100 µM (inactive) | > 100 µM (inactive) | > 100 µM (inactive) | 98.9 µM (inactive) | > 100 µM (inactive) | > 100 µM (inactive) | > 100 µM (inactive) | > 100 µM (inactive)
CC(=O)c1ccc2c(c1)N(CCCN1CCN(CCO)CC1)c1ccccc1C2 | 13.6 µM (inactive) | 18.9 µM (inactive) | 16.3 µM (inactive) |  | 15.5 µM (inactive) | 23.8 µM (inactive) | 11.2 µM (inactive) | 14.6 µM (inactive) | 12.2 µM (inactive) | 5.78 µM (inactive) | 17.3 µM (inactive) | 16.6 µM (inactive) | 16.7 µM (inactive) | 14.7 µM (inactive) | 8.71 µM (inactive) | 16.3 µM (inactive) | 17.2 µM (inactive) | 15.8 µM (inactive) | 12.9 µM (inactive) | 13.8 µM (inactive)
COC(=O)c1ccc(/C=N/c2ccc(S(N)(=O)=O)cc2)cc1 | 53.5 µM (inactive) | > 100 µM (inactive) | 37.1 µM (inactive) | > 100 µM (inactive) | 87.1 µM (inactive) | 74.5 µM (inactive) | > 100 µM (inactive) | > 100 µM (inactive) | > 100 µM (inactive) | 14.2 µM (inactive) |  | 58.9 µM (inactive) | 38.2 µM (inactive) | > 100 µM (inactive) | 35.4 µM (inactive) |  | > 100 µM (inactive) | > 100 µM (inactive) | 30.9 µM (inactive) | 97.1 µM (inactive)
